Data as given in US7323485B2, “4-(substituted cycloalkylmethyl) imidazole-2-thiones, 4-(substituted cycloalkenylmethyl) imidazole-2-thiones, 4-(substituted cycloalkylmethyl) imidazol-2-ones and 4-(substituted cycloalkenylmethyl) imidazol-2-ones and related compounds” (Allergan, Inc., priority 2002, dated 2008).
Read-outs that look alike come from different tables or passages of the source.

Legend:
male Sprague-Dawley rats = assay: Sedative activity (exploratory behavior); assay type: in vivo, rat; conditions: intraperitoneally, up to a dose of 1 mg/kg
Method: To test sedation, six male Sprague-Dawley rats are given up to 3 mg/kg of the test compound in a saline or DMSO vehicle by intraperitoneal injection (i.p.). Sedation is graded 30 minutes following administration of the drug by monitoring locomotor skills as follows.
The Sprague-Dawley rats are weighed and 1 ml/kg body weight of an appropriate concentration (ie. 3 mg/ml for a final dose of 3 mg/kg) drug solution is injected intraperitoneally. Typically the test compound is formulated in approximately 10 to 50% DMSO. The results are compared to controls that are injected with 1 ml/kg saline or 10 to 50% DMSO. Rat activity is then determined 30 minutes after injection of the drug solution. Rats are placed in a dark covered chamber and a digicom analyzer (Omnitech Electronic) quantitates their exploratory behavior for a five-minute period. The machine records each time the rat interrupts an array of 32 photoelectric beams in the X and Y orientation.

[1] = system: rats with ligated L5 and L6 spinal nerves; assay: Chung model of neuropathic pain (tactile allodynia, von Frey hairs); assay type: in vivo; conditions: Rattus norvegicus, 0.5 h, 30 min following drug administration, read-out: % Pain Reversal ± SEM; for inhibition in vivo at 0.001 mg/kg: 1 μg/kg i.p.; for inhibition in vivo at 0.003 mg/kg: 3 μg/kg i.p.
Description: A model in accordance with Kim and Chung 1992, Pain […], pp 355-363 (Chung model), for chronic pain (in particular peripheral neuropathy) involves the surgical ligation of the L5 (and optionally the L6) spinal nerves on one side in experimental animals. Rats recovering from the surgery gain weight and display a level of general activity similar to that of normal rats. However, these rats develop abnormalities of the foot, wherein the hindpaw is moderately everted and the toes are held together. More importantly, the hindpaw on the side affected by the surgery appears to become sensitive to pain from low-threshold mechanical stimuli, such as that producing a faint sensation of touch in a human, within about 1 week following surgery. This sensitivity to normally non-painful touch is called “tactile allodynia” and lasts for at least two months. The response includes lifting the affected hindpaw to escape from the stimulus, licking the paw and holding it in the air for many seconds. None of these responses is normally seen in the control group.
Rats are anesthetized before surgery. The surgical site is shaved and prepared either with betadine or Novacaine. Incision is made from the thoracic vertebra Xlll down toward the sacrum. Muscle tissue is separated from the spinal vertebra (left side) at the L4-S2 levels. The L6 vertebra is located and the transverse process is carefully removed with a small rongeur to expose the L4-L6 spinal nerves. The L5 and L6 spinal nerves are isolated and tightly ligated with 6-0 silk thread. The same procedure is done on the right side as a control, except no ligation of the spinal nerves is performed.
A complete hemostasis is confirmed, then the wounds are sutured. A small amount of antibiotic ointment is applied to the incised area, and the rat is transferred to the recovery plastic cage under a regulated heat-temperature lamp. On the day of the experiment, at least seven days after the surgery, typically six rats per test group are administered the test drugs by intraperitoneal (i.p.) injection or oral gavage. For i.p. injection, the compounds are formulated in approximately 10 to 50% DMSO and given in a volume of 1 ml/kg body weight.
Tactile allodynia is measured prior to and 30 minutes after drug administration using von Frey hairs that are a series of fine hairs with incremental differences in stiffness. Rats are placed in a plastic cage with a wire mesh bottom and allowed to acclimate for approximately 30 minutes. The von Frey hairs are applied perpendicularly through the mesh to the mid-plantar region of the rats' hindpaw with sufficient force to cause slight buckling and held for 6-8 seconds. The applied force has been calculated to range from 0.41 to 15.1 grams. If the paw is sharply withdrawn, it is considered a positive response. A normal animal will not respond to stimuli in this range, but a surgically ligated paw will be withdrawn in response to a 1-2 gram hair. The 50% paw withdrawal threshold is determined using the method of Dixon, W. J., Ann. Rev. Pharmacol. Toxicol. 20:441-462 (1980). The post-drug threshold is compared to the pre-drug threshold and the percent reversal of tactile sensitivity is calculated based on a normal threshold of 15.1 grams. The results are expressed in percent (%) MPE, where the MPE value reflects the percentage reversal of pain threshold to that of a normal animal (100%). Table 3 below indicates results of this test with Compounds 1, 7 and 29 of the invention, administered i.p. and in oral doses.

Row | Compound | sedative effect (male Sprague-Dawley rats) | inhibition in vivo at 0.001 mg/kg ([1]; ip) | inhibition in vivo at 0.003 mg/kg ([1]; ip) | inhibition in vivo at 0.01 mg/kg ([1]; ip, 10 μg/kg i.p.) | inhibition in vivo at 0.03 mg/kg ([1]; ip, 30 μg/kg i.p.) | inhibition in vivo at 0.1 mg/kg ([1]; ip, 100 μg/kg i.p.) | inhibition in vivo at 0.01 mg/kg ([1]; po, 10 μg/kg p.o.) | inhibition in vivo at 0.03 mg/kg ([1]; po, 30 μg/kg p.o.) | inhibition in vivo at 0.1 mg/kg ([1]; po, 100 μg/kg p.o.) | inhibition in vivo at 0.3 mg/kg ([1]; po, 300 μg/kg p.o.) | inhibition in vivo at 0.3 mg/kg ([1]; ip, 300 μg/kg i.p.) | inhibition in vivo at 1 mg/kg ([1]; po, 1000 μg/kg p.o.)
1 | O=C1c2ccccc2CCC1Cc1c[nH]c(=S)[nH]1 (single isomer, unassigned) [Compound 23, 2-(2-thioxo-2,3-dihydro-1H-imidazol-4-ylmethyl)-3,4-dihydro-2H-naphthalen-1-one] | no sedative effect | 0.7 ± 0.8% | 59 ± 5.8% | 74 ± 6.1% | 69 ± 10% | – | – | – | – | – | – | –
2 | S=c1[nH]cc(CC2CCc3ccccc32)[nH]1 (centres unmarked) [Compound 7, 4-indan-1-ylmethyl-1,3-dihydro-imidazole-2-thione] | – | 1 ± 1% | 23 ± 4% | 58 ± 8% | 85 ± 6% | 89 ± 7% | 1 ± 1% | 56 ± 10% | 58 ± 8% | 61 ± 6% | – | –
3 | S=c1[nH]cc(CC2CC=CC2)[nH]1 [Compound 18, 4-cyclopent-3-enylmethyl-1,3-dihydro-imidazole-2-thione] | no sedative effect | – | – | 5 ± 2.5% | 35 ± 5.2% | 72 ± 6.6% | – | 1 ± 2% | 68 ± 4.4% | 82 ± 5.9% | 71 ± 6.4% | 82 ± 8.1%
4 | S=c1[nH]cc(CC2CCc3sccc3C2)[nH]1 (centres unmarked) [Compound 29, 4-(4,5,6,7-tetrahydro-benzo[b]thiophen-5-ylmethyl)-1,3-dihydro-imidazole-2-thione] | – | – | – | 17 ± 3% | 61 ± 11% | 14 ± 2% | – | – | – | – | – | –
5 | O=c1[nH]cc(CC2CCC3=C2CCC3)[nH]1 (centres unmarked) [Compound 41, 4-(1,2,3,4,5,6-Hexahydro-pentalen-1-ylmethyl)-1,3-dihydro-imidazol-2-one] | – | – | – | 3 ± 1.6% | 71 ± 2.8% | 13 ± 1% | – | – | – | – | – | –
6 | CC1=C(C)C(Cc2c[nH]c(=O)[nH]2)CC1 (centres unmarked) [Compound 44, 4-(2,3-dimethyl-cyclopent-2-enylmethyl)-1,3-dihydro-imidazol-2-one] | – | 0.5 ± 2.9% | 24 ± 4.6% | 46 ± 9.1% | 62 ± 9.6% | 82 ± 5.8% | – | – | – | – | – | –
7 | O=c1[nH]cc(CC2CCc3cc(F)ccc32)[nH]1 (centres unmarked) [Compound 49, 4-(5-fluoro-indan-1-ylmethyl)-1,3-dihydro-imidazol-2-one] | no sedative effect | 2.3 ± 1.3% | 23 ± 3.8% | 39 ± 7.7% | 72 ± 8.2% | 80 ± 6.5% | – | 43 ± 7.1% | 68 ± 4.8% | 74 ± 6.8% | – | –
8 | O=c1[nH]cc(C[C@H]2CCc3cc(F)ccc32)[nH]1 [Compound 61, R-(+)-4-(5-fluoro-indan-1-ylmethyl)-1,3-dihydro-imidazol-2-one] | no sedative effect | – | – | – | – | – | – | – | – | – | – | –
